Experiments:
EC1010 (CMY-6) [1] = test: organism not typed; type: cell-based
KP1005 (CTX-M-14) [2] = test: Aztreonam potentiation (MPC@4), KP1005; type: cell-based; conditions: BLI with aztreonam at 4 μg/mL
ec308 (SHV-5) [3] = test: Tigemonam potentiation (MPC@4), ec308; type: cell-based
KP1010 (SHV-12) [4] = test: Tigemonam potentiation (MPC@4), KP1010; type: cell-based
KP1009 (CTX-M-15) [5] = test: organism not typed; type: cell-based
ec308 (SHV-5) [6] = test: Aztreonam potentiation (MPC@4), ec308; type: cell-based; conditions: BLI with aztreonam at 4 μg/mL
KP1009 (CTX-M-15) [7] = test: Tigemonam potentiation (MPC@4), KP1009; type: cell-based; conditions: BLI with tigemonam at 4 μg/mL
ECL1002 [8] = test: Tigemonam potentiation (MPC@4), ECL1002; type: cell-based; conditions: BLI with tigemonam at 4 μg/mL
OXA-48 = OXA-48 (Klebsiella pneumoniae, UniProt Q6XEC0); test: Ki, nitrocefin cleavage by purified enzyme, OXA-48; type: biochemical; conditions: nitrocefin reporter substrate; read-out: Ki (OXA-48, NCF)
Procedure, shortened: (§1)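 Steps: enzyme plus inhibitor dilutions in reaction buffer; 10 min at room temperature; add nitrocefin; read absorbance at 490 nm each 10 sec for 10 min.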

ec302 (TEM-10) [9] = test: Tigemonam potentiation (MPC@4), ec302; type: cell-based
KP1086 (OXA-48) = test: Biapenem potentiation (MPC@1), KP1086; conditions: BLI with biapenem at 1 μg/mL
KP1005 (CTX-M-14) [10] = test: Tigemonam potentiation (MPC@4), KP1005; type: cell-based; conditions: BLI with tigemonam at 4 μg/mL
ECL1002 [11] = test: Aztreonam potentiation (MPC@4), ECL1002; type: cell-based; conditions: BLI with aztreonam at 4 μg/mL
KP1004 (KPC-2) [12] = test: Biapenem potentiation (MPC@1), KP1004; conditions: BLI with biapenem at 1 μg/mL
KP1010 (SHV-12) [13] = test: Aztreonam potentiation (MPC@4), KP1010; type: cell-based
CTX-M-14 = CTX-M-14 (Escherichia coli, UniProt Q9L5C7); test: Ki, nitrocefin cleavage by purified enzyme, CTX-M-14; type: biochemical; conditions: nitrocefin reporter substrate; read-out: Ki (CTX-M-14, NCF)
Procedure, shortened: as §1

SHV-12 = SHV-12 (Klebsiella pneumoniae, UniProt P0AD64, E235K/G234S/L31Q); test: Ki, nitrocefin cleavage by purified enzyme, SHV-12; type: biochemical; conditions: nitrocefin reporter substrate; read-out: Ki (SHV-12, NCF)
Procedure, shortened: as §1

Pa AmpC = Pa AmpC (Pseudomonas aeruginosa, UniProt P24735); test: Ki, nitrocefin cleavage by purified enzyme, Pa AmpC; type: biochemical; conditions: nitrocefin reporter substrate; read-out: Ki (Pa AmpC, NCF)
Procedure, shortened: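 Absorbance at 490 nm, recorded every 10 sec for 10 min after nitrocefin addition, reported substrate cleavage. Inhibitor at various concentrations had first been incubated with purified enzyme for 10 min at room temperature, and Ki values were determined from these profiles.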

KP1004 (KPC-2) [14] = test: Aztreonam potentiation (MPC@4), KP1004; type: cell-based; conditions: BLI with aztreonam at 4 μg/mL
ec302 (TEM-10) [15] = test: Aztreonam potentiation (MPC@4), ec302; type: cell-based; conditions: BLI with aztreonam at 4 μg/mL
P99 = P99 (Enterobacter cloacae, UniProt P05364); test: Ki, nitrocefin cleavage by purified enzyme, P99; type: biochemical; conditions: nitrocefin reporter substrate; read-out: Ki (P99, NCF)
Procedure, shortened: as §1

KPC-2 = KPC-2 (Klebsiella pneumoniae, UniProt Q9F663); test: Ki, nitrocefin cleavage by purified enzyme, KPC-2; type: biochemical; conditions: nitrocefin reporter substrate; read-out: Ki (KPC-2, NCF)
Procedure, shortened: as §1

EC1010 (CMY-6) [16] = test: Tigemonam potentiation (MPC@4), EC1010; type: cell-based; conditions: BLI with tigemonam at 4 μg/mL
PAM1032/KPC-2 = test: Biapenem potentiation MPC64, PAM1032/KPC-2 (efflux proficient); type: cell-based, Pseudomonas aeruginosa; conditions: BLI to decrease MIC of biapenem 64-fold; MexAB-OprM overexpressed
Procedure: Efflux of BLIs from Pseudomonas aeruginosa by the MexAB-OprM efflux pump was also evaluated. […] Due to expression of KPC-2 both strains became resistant to biapenem. […] Potency of BLIs to potentiate biapenem in these strains was determined. […] The ratio of MPC64 values for each BLI in PAM1032/KPC-2 (efflux proficient) and PAM1154/KPC-2 (efflux deficient) was determined to generate the Efflux Index (EI).

Sequence of CTX-M-14 (Q9L5C7 29-291): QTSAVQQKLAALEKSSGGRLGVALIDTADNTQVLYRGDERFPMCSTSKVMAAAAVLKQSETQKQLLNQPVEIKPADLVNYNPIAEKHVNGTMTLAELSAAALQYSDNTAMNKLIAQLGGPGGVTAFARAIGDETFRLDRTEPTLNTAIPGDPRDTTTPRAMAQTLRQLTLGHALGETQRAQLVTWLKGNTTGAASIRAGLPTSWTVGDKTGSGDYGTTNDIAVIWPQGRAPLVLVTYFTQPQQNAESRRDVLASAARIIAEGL
Sequence of Pa AmpC (P24735 27-397): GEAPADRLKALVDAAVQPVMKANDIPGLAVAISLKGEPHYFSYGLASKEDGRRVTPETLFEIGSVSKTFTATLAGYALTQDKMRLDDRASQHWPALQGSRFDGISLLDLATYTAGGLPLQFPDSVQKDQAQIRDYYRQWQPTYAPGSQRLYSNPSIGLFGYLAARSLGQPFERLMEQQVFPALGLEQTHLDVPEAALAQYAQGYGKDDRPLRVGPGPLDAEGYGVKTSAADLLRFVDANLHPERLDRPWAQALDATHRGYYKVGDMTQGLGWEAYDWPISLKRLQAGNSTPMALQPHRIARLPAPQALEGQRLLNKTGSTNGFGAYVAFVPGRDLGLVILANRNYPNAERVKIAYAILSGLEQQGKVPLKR
Sequence of OXA-48 (Q6XEC0 23-265, looked up, species assumed): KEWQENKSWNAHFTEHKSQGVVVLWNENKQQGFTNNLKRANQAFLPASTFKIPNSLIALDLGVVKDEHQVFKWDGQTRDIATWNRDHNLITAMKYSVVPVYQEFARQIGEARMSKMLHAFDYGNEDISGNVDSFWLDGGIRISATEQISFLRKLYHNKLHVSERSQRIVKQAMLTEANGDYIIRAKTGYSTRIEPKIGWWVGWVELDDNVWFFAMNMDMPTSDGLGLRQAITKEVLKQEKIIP
Sequence of P99 (P05364 21-381): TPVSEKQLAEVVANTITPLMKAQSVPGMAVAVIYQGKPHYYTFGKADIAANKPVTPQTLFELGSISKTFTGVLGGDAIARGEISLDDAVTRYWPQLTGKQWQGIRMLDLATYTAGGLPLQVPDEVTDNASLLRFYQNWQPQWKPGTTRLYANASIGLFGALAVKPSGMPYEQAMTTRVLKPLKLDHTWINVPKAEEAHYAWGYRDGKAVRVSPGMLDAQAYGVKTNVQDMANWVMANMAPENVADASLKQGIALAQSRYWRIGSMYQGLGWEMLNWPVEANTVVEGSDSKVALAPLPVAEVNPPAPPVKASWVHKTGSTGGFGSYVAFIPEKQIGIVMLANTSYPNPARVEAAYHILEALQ
Sequence of KPC-2 (Q9F663 25-293, looked up, species assumed): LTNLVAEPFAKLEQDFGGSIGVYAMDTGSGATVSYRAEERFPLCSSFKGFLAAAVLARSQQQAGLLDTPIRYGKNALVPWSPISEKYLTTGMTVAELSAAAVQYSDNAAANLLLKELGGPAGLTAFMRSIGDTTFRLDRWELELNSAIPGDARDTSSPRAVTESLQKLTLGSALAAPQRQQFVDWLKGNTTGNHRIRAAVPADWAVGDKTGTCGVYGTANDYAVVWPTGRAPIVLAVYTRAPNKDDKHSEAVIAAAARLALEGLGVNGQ
Sequence of SHV-12 (P0AD64 22-286 L31Q/G234S/E235K): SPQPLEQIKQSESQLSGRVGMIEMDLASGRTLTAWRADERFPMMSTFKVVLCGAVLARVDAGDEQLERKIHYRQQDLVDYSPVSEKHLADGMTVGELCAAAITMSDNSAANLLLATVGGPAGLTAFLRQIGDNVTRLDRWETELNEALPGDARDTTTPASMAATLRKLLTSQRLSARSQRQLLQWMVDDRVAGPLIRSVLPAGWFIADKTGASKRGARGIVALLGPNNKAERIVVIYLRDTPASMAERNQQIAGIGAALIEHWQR

Row | Compound | AZT MPC4 CTX-M-14 KP1005 (KP1005 (CTX-M-14) [2]) | TIG MPC4 SHV-5 ec308 (ec308 (SHV-5) [3]) | TIG MPC4 SHV-12 KP1010 (KP1010 (SHV-12) [4]) | AZT MPC4 CTX-M-15 KP1009 (KP1009 (CTX-M-15) [5]) | AZT MPC4 SHV-5 ec308 (ec308 (SHV-5) [6]) | TIG MPC4 CTX-M-15 KP1009 (KP1009 (CTX-M-15) [7]) | TIG MPC4 ECL1002 (ECL1002 [8]) | Ki (OXA-48) [nM] | TIG MPC4 TEM-10 ec302 (ec302 (TEM-10) [9]) | BPM MPC1 OXA-48 KP1086 (KP1086 (OXA-48)) | TIG MPC4 CTX-M-14 KP1005 (KP1005 (CTX-M-14) [10]) | AZT MPC4 ECL1002 (ECL1002 [11]) | BPM MPC1 KP1004 KPC-2 (KP1004 (KPC-2) [12]) | AZT MPC4 SHV-12 KP1010 (KP1010 (SHV-12) [13]) | Ki (CTX-M-14) [nM] | Ki (Pa AmpC) [nM] | AZT MPC4 TEM-10 ec302 (ec302 (TEM-10) [15]) | TIG MPC4 CMY-6 EC1010 (EC1010 (CMY-6) [16]) | PAM1032/KPC-2 Biapenem MPC64 (PAM1032/KPC-2) | also measured
1 | NC(=O)CC(=O)N[C@H]1Cc2cccc(C(=O)O)c2OB1O [E, reference compound] | X (MIC of less than 1 ng/mL) | Y (key: X: MIC of less than 1 ng/mL; Y: MIC of 1 μg/mL to 10 μg/mL; Z: MIC of greater than 10 μg/mL) | X (key: X: MIC of less than 1 μg/mL; Y: MIC of 1 μg/mL to 10 μg/mL; Z: MIC of greater than 10 μg/mL) | X (key: X: MIC of less than 1 ng/mL; Y: MIC of 1 μg/mL to 10 μg/mL; Z: MIC of greater than 10 μg/mL) | X (MIC of less than 1 ng/mL) | Y (MIC of 1 μg/mL to 10 μg/mL) | X (MIC of less than 1 μg/mL) | < 1 | Z (key: X: MIC of less than 1 ng/mL; Y: MIC of 1 μg/mL to 10 μg/mL; Z: MIC of greater than 10 μg/mL) | Y (MIC of 1 μg/mL to 10 μg/mL) | Y (MIC of 1 μg/mL to 10 μg/mL) | X (MIC of less than 1 ng/mL) | X (MIC of less than 1 μg/mL) | X (key: X: MIC of less than 1 ng/mL; Y: MIC of 1 μg/mL to 10 μg/mL; Z: MIC of greater than 10 μg/mL) | < 1 | – | – | – | – | AZT MPC4 CMY-6 EC1010 (EC1010 (CMY-6) [1]): X (key: X: MIC of less than 1 ng/mL; Y: MIC of 1 μg/mL to 10 μg/mL; Z: MIC of greater than 10 μg/mL)
2 | O=C(O)CC(=O)N[C@H]1Cc2cccc(C(=O)O)c2OB1O [D, reference compound] | Y (MIC of 1 μg/mL to 10 μg/mL) | Y (key: X: MIC of less than 1 ng/mL; Y: MIC of 1 μg/mL to 10 μg/mL; Z: MIC of greater than 10 μg/mL) | Y (key: X: MIC of less than 1 ng/mL; Y: MIC of 1 μg/mL to 10 μg/mL; Z: MIC of greater than 10 μg/mL) | Y (key: X: MIC of less than 1 ng/mL; Y: MIC of 1 μg/mL to 10 μg/mL; Z: MIC of greater than 10 μg/mL) | Y (MIC of 1 μg/mL to 10 μg/mL) | Y (MIC of 1 μg/mL to 10 μg/mL) | X (MIC of less than 1 μg/mL) | < 1 | Z (key: X: MIC of less than 1 ng/mL; Y: MIC of 1 μg/mL to 10 μg/mL; Z: MIC of greater than 10 μg/mL) | Y (MIC of 1 μg/mL to 10 μg/mL) | Z (MIC of greater than 10 μg/mL) | Y (MIC of 1 μg/mL to 10 μg/mL) | X (MIC of less than 1 μg/mL) | Y (key: X: MIC of less than 1 ng/mL; Y: MIC of 1 μg/mL to 10 μg/mL; Z: MIC of greater than 10 μg/mL) | < 1 | > 10 | Z (MIC of greater than 10 μg/mL) | X (MIC of less than 1 μg/mL) | – | Ki (SHV-12): 1 to 10 nM; AZT MPC4 KPC-2 KP1004 (KP1004 (KPC-2) [14]): Y (MIC of 1 μg/mL to 10 μg/mL); Ki (P99): > 10 nM; Ki (KPC-2): > 10 nM
3 | CNC(=O)CC(=O)N[C@H]1Cc2cccc(C(=O)O)c2OB1O [G, reference compound] | Y (MIC of 1 μg/mL to 10 μg/mL) | Y (key: X: MIC of less than 1 ng/mL; Y: MIC of 1 μg/mL to 10 μg/mL; Z: MIC of greater than 10 μg/mL) | – | – | – | – | – | – | Z (key: X: MIC of less than 1 ng/mL; Y: MIC of 1 μg/mL to 10 μg/mL; Z: MIC of greater than 10 μg/mL) | – | Y (MIC of 1 μg/mL to 10 μg/mL) | – | – | – | < 1 | – | Y (MIC of 1 μg/mL to 10 μg/mL) | X (MIC of less than 1 μg/mL) | 40 | –
4 | O=C(CSC1CNC1)N[C@H]1Cc2cccc(C(=O)O)c2OB1O [B, reference compound] | – | Y (key: X: MIC of less than 1 ng/mL; Y: MIC of 1 μg/mL to 10 μg/mL; Z: MIC of greater than 10 μg/mL) | – | – | – | – | – | – | Z (key: X: MIC of less than 1 ng/mL; Y: MIC of 1 μg/mL to 10 μg/mL; Z: MIC of greater than 10 μg/mL) | – | Y (MIC of 1 μg/mL to 10 μg/mL) | – | – | – | – | 1 to 10 | Y (MIC of 1 μg/mL to 10 μg/mL) | X (MIC of less than 1 μg/mL) | 2.5 | –

Source: patent publication US9963467B2, “Boronic acid derivatives and therapeutic uses thereof” (Rempex Pharmaceuticals, Inc., priority 2014, dated 2018)
